Measured values as given in article PMC11671526, “β-caryophyllene sensitizes hepatocellular carcinoma cells to chemotherapeutics and inhibits cell malignancy through targeting MAPK signaling pathway” (Frontiers in Pharmacology, 2024).
Like-named read-outs stand apart in the source and are kept apart here. Blank lines part the entries; values can stand above or below the molecule they belong to.

Tests used:
Assay type in all cases: cell-based, human
[1] = system: HL-7702 normal liver cells; assay: CCK8 cell viability assay; conditions: for effect of combination with BCP (isobologram analysis): HL-7702, BCP 25-150 μM combined with DOX or DDP; for IC50: HL-7702, 48 h, individual treatment, read-out: IC50 (half maximal inhibitory concentration)
Procedure: (§1) Cell viability assay using the CCK8 reagent (Bimake, Shanghai, China) was conducted according to the manufacturer’s instructions. The cell proliferation data were used to calculate the cell viability. Briefly, HepG2, SMMC-7721, and HL-7702 cells with a density of 5 × 10^3 cells/well were seeded into each well of 96-well plates and incubated overnight. […] After 48 h, 10 µL of CCK8 reagent was added to each well, followed by 2 h incubation at 37°C and measurement of absorbance at 450 nm using a microplate reader (Molecular Devices, LLC.). […] The effects of the combinatorial inhibition were visualized by isobologram analyses ([Tallarida, 2001]). […] A line was drawn to link the two IC50 points. […] The dots above, on, or below the line indicate the “antagonistic,” “additive” and “synergistic” effects, respectively. The same method was used to obtain the CI value for the cotreatment of BCP and DDP.

HepG2 cells [2] = assay: CCK8 cell viability assay; conditions: for effect of combination with BCP (isobologram analysis): HepG2, BCP 25-150 μM combined with DOX or DDP; for IC50: HepG2, 48 h, individual treatment, read-out: IC50 (half maximal inhibitory concentration)
Procedure: as §1

SMMC-7721 cells [3] = assay: CCK8 cell viability assay; conditions: for IC50: SMMC-7721, 48 h, individual treatment, read-out: IC50 (half maximal inhibitory concentration); for effect of combination with BCP (isobologram analysis): SMMC-7721, BCP 25-150 μM combined with DOX or DDP
Procedure: as §1

HL-7702 cells = assay: Annexin V-FITC/PI cell apoptosis assay (flow cytometry); conditions: HL-7702, 48 h, BCP 150 µM, DOXL 0.2 µM, DOXH 1.5 µM, DDPL 5 µM, DDPH 30 µM
Procedure: (§2) The cell apoptosis assay was performed as previously described ([Zhong et al., 2019]; [Farooq et al., 2023]). […] Ltd., Nanjing, China). The cells were analyzed using flow cytometer (BECKMAN COULTER, cytoFLEX, United States).

HepG2 cells [4] = assay: as above; conditions: HepG2, 48 h; BCP 150 µM, DOXL 0.2 µM, DOXH 1.5 µM, DDPL 5 µM, DDPH 30 µM
Procedure: as §2

SMMC-7721 cells [5] = assay: as above; conditions: SMMC-7721, 48 h; BCP 150 µM, DOXL 0.2 µM, DOXH 1.5 µM, DDPL 5 µM, DDPH 30 µM
Procedure: as §2

[6] = HepG2, cotreatment with 25 μM BCP
[7] = HepG2, cotreatment with 50 μM BCP
[8] = HepG2, cotreatment with 75 μM BCP
[9] = HepG2, cotreatment with 100 μM BCP
[10] = HepG2, cotreatment with 150 μM BCP
[11] = SMMC-7721, cotreatment with 25 μM BCP
[12] = SMMC-7721, cotreatment with 50 μM BCP
[13] = SMMC-7721, cotreatment with 75 μM BCP
[14] = SMMC-7721, cotreatment with 100 μM BCP
[15] = SMMC-7721, cotreatment with 150 μM BCP

IC50 (HepG2 cells [2]; Homo sapiens): 1.99 ± 0.2 µM | IC50 (SMMC-7721 cells [3]; Homo sapiens): 1.76 ± 0.13 µM
Structure (SMILES): COc1cccc2c1C(=O)c1c(O)c3c(c(O)c1C2=O)C[C@@](O)(C(=O)CO)C[C@@H]3O[C@H]1C[C@H](N)[C@H](O)[C@H](C)O1 [DOX, doxorubicin]
effect of combination with BCP (isobologram analysis) [1]: additive | IC50 ([1]; Homo sapiens, L02): 0.82 ± 0.09 µM | effect of combination with BCP (isobologram analysis) (HepG2 cells [2]): synergistic | combination index (CI) (HepG2 cells [2]; [6]): 0.53 | combination index (CI) (HepG2 cells [2]; [7]): 0.58 | combination index (CI) (HepG2 cells [2]; [8]): 0.56 | combination index (CI) (HepG2 cells [2]; [9]): 0.65 | combination index (CI) (HepG2 cells [2]; [10]): 0.85 | effect of combination with BCP (isobologram analysis) (SMMC-7721 cells [3]): synergistic | combination index (CI) (SMMC-7721 cells [3]; [11]): 0.48 | combination index (CI) (SMMC-7721 cells [3]; [12]): 0.53 | combination index (CI) (SMMC-7721 cells [3]; [13]): 0.50 | combination index (CI) (SMMC-7721 cells [3]; [14]): 0.55 | combination index (CI) (SMMC-7721 cells [3]; [15]): 0.65 | apoptotic rate (HL-7702 cells; listed as DOXH): 33.83% ± 1.27% | apoptotic rate (HL-7702 cells; listed as DOXL): 13.04% ± 0.57% | apoptotic rate (HepG2 cells [4]): 13.40% ± 0.65% | apoptotic rate (SMMC-7721 cells [5]): 8.74% ± 1.32%

Structure (SMILES): N.N.[Cl][Pt][Cl] [DDP, cisplatin]
IC50 [1]: 11.5 ± 0.82 µM | effect of combination with BCP (isobologram analysis) [1]: additive | combination index (CI) ([1]; HL-7702, cotreatment with 25 μM BCP): 1.04 | combination index (CI) ([1]; HL-7702, cotreatment with 50 μM BCP): 0.95 | combination index (CI) ([1]; HL-7702, cotreatment with 75 μM BCP): 1.01 | combination index (CI) ([1]; HL-7702, cotreatment with 100 μM BCP): 0.89 | combination index (CI) ([1]; HL-7702, cotreatment with 150 μM BCP): 0.92 | fold reduction of IC50 in cotreatment from individual treatment ([1]; HL-7702, cotreatment with 150 μM BCP vs DOX or DDP alone): less than 1.5 fold | IC50 (HepG2 cells [2]): 27.4 ± 2.59 µM | effect of combination with BCP (isobologram analysis) (HepG2 cells [2]): synergistic | combination index (CI) (HepG2 cells [2]; [6]): 0.74 | combination index (CI) (HepG2 cells [2]; [7]): 0.71 | combination index (CI) (HepG2 cells [2]; [8]): 0.66 | combination index (CI) (HepG2 cells [2]; [9]): 0.68 | combination index (CI) (HepG2 cells [2]; [10]): 0.88 | fold lower IC50 in cotreatment than in treatment alone (HepG2 cells [2]; HepG2, cotreatment with 150 μM BCP vs DOX or DDP alone): over 9 fold | IC50 (SMMC-7721 cells [3]): 33.7 ± 1.43 µM | effect of combination with BCP (isobologram analysis) (SMMC-7721 cells [3]): synergistic | combination index (CI) (SMMC-7721 cells [3]; [11]): 0.59 | combination index (CI) (SMMC-7721 cells [3]; [12]): 0.57 | combination index (CI) (SMMC-7721 cells [3]; [13]): 0.52 | combination index (CI) (SMMC-7721 cells [3]; [14]): 0.51 | combination index (CI) (SMMC-7721 cells [3]; [15]): 0.58 | fold lower IC50 in cotreatment than in treatment alone (SMMC-7721 cells [3]; SMMC-7721, cotreatment with 150 μM BCP vs DOX or DDP alone): over 9 fold | apoptotic rate (HL-7702 cells; listed as DDPH): 28.52% ± 1% | apoptotic rate (HL-7702 cells; listed as DDPL): 17.86% ± 0.69% | apoptotic rate (HepG2 cells [4]): 11.40% ± 0.52% | apoptotic rate (SMMC-7721 cells [5]): 7.67% ± 0.46%
